pIC50: −log10 of the molar value. Converted amounts (≈) assume the structure as drawn. Where two headings read alike, the source gives them in different places.
Experiments:
HepG2 cells = assay: HepG2 cytotoxicity, CellTiter 96 (MTS) assay; format: cell-based, human; settings: for pIC50: Homo sapiens, read-out: HepG2 IC50; for SI, selectivity index: IC50 (HepG2)/MIC against Mtb H37Ra (in µM)
[1] = system: Mycobacterium smegmatis DSM 43465 (ATCC 607); assay: Microdilution broth, modified Microplate Alamar Blue Assay, whole cell growth inhibition; format: cell-based; settings: Mycolicibacterium smegmatis, read-out: MIC Mycobacterium smegmatis
[2] = system: Mycobacterium tuberculosis H37Ra ITM-M006710 (ATCC 9431); assay: as above; format: cell-based; settings: Mycobacterium tuberculosis; in vitro, Middlebrook 7H9 broth, resazurin; read-out: MIC Mtb H37Ra
[3] = system: Mycobacterium aurum DSM 43999 (ATCC 23366); assay: as above; format: cell-based; settings: Mycolicibacterium aurum, read-out: MIC Mycobacterium aurum
[4] = system: Trichophyton interdigitale ATCC 9533, CCM 8377; assay: Antifungal microdilution broth method (EUCAST); format: cell-based
[5] = system: Staphylococcus aureus spp.aureus ATCC 29213, CCM 4223; assay: Antibacterial microdilution broth method (EUCAST); format: cell-based; settings: read-out: MIC SA
[6] = system: Candida tropicalis ATCC 750, CCM 8264; assay: Antifungal microdilution broth method (EUCAST); format: cell-based
[7] = system: Acinetobacter baumanii ATCC 19606, DSM 30007; assay: Antibacterial microdilution broth method (EUCAST); format: cell-based; settings: Acinetobacter baumannii
[8] = system: Escherichia coli ATCC 25922, CCM 3954; assay: Antibacterial microdilution broth method (EUCAST); format: cell-based; settings: read-out: MIC EC
[9] = system: Candida krusei ATCC 6258, CCM 8271; assay: Antifungal microdilution broth method (EUCAST); format: cell-based; settings: Pichia kudriavzevii
[10] = system: Staphylococcus aureus methicillin resistant ATCC 43300, CCM 4750; assay: microbe, parasite or virus in culture; format: cell-based; settings: ATCC 43300 / CCM 4750 / MRSA, read-out: MIC MRSA
[11] = system: Candida albicans ATCC 24433, CCM 8320; assay: Antifungal microdilution broth method (EUCAST); format: cell-based
[12] = system: Klebsiella pneumoniae ATCC 10031, CCM 4415; assay: Antibacterial microdilution broth method (EUCAST)
[13] = system: Absidia corymbifera CCM 8077 (Lichtheimia corymbifera); assay: Antifungal microdilution broth method (EUCAST); format: cell-based
[14] = system: Enterococcus faecalis ATCC 29212, CCM 4224; assay: Antibacterial microdilution broth method (EUCAST); format: cell-based; settings: read-out: MIC EF
[15] = system: Staphylococcus epidermidis ATCC 12228, CCM 4418; assay: Antibacterial microdilution broth method (EUCAST); format: cell-based; settings: read-out: MIC SE
[16] = system: Candida parapsilosis ATCC 22019, CCM 8260; assay: Antifungal microdilution broth method (EUCAST); format: cell-based; settings: Lodderomyces parapsilosis
[17] = system: Aspergillus flavus CCM 8363; assay: Antifungal microdilution broth method (EUCAST); format: cell-based
[18] = system: Aspergillus fumigatus ATCC 204305; assay: Antifungal microdilution broth method (EUCAST); format: cell-based
[19] = system: Pseudomonas aeruginosa ATCC 27853, CCM 3955; assay: Antibacterial microdilution broth method (EUCAST); format: cell-based; settings: read-out: MIC PA
[20] = HepG2, 24 h incubation, > means higher concentration not reproducible due to precipitation
[21] = in vitro, Middlebrook 7H9 broth, resazurin
[22] = CCM8077, 24 h, read-out: MIC AC
[23] = CCM8077, 48 h, read-out: MIC AC
[24] = CCM8363, 24 h, read-out: MIC AFla
[25] = CCM8363, 48 h, read-out: MIC AFla
[26] = ATCC204305, 24 h, read-out: MIC AF
[27] = ATCC204305, 48 h, read-out: MIC AF

O=C(Nc1cccc(O)c1)c1cnc(Cl)cn1 [Compound 2, 5-Chloro-N-(3-hydroxyphenyl)pyrazine-2-carboxamide]
pIC50 (HepG2 cells; [20]): < 3.30
SI, selectivity index (HepG2 cells): >3.99
MIC [1, 21]: ≥ 500 µg/mL
MIC [2]: 31.2 µg/mL (≈ 125 µM)
MIC [3, 21]: ≥ 500 µg/mL

O=C(Nc1cccc(C(F)(F)F)c1)c1cnc(Cl)cn1 [Compound 1, 5-Chloro-N-(3-(trifluoromethyl)phenyl)pyrazine-2-carboxamide]
pIC50 (HepG2 cells; [20]): 3.91
SI, selectivity index (HepG2 cells): 4.78
MIC [1, 21]: ≥ 500 µg/mL
MIC [2]: 7.81 µg/mL (≈ 25.9 µM)
MIC [3, 21]: ≥ 500 µg/mL

CCCCNc1cnc(C(=O)Nc2cccc(O)c2)cn1 [Compound 2b, 5-(Butylamino)pyrazine-N-(3-hydroxyphenyl)-2-carboxamide]
MIC ([4]; 72 h, read-out: MIC TI): > 125 µM
MIC ([4]; 120 h, read-out: MIC TI): > 125 µM
pIC50 (HepG2 cells; HepG2, 24 h): < 4.60
SI, selectivity index (HepG2 cells): >0.92
MIC [1]: ≥ 500 µg/mL
MIC [2]: 7.81 µg/mL (≈ 27.3 µM)
MIC ([5]; 24 h): > 500 µM
MIC ([5]; 48 h): > 500 µM
MIC ([6]; 24 h, read-out: MIC CT): > 125 µM
MIC ([6]; 48 h, read-out: MIC CT): > 125 µM
MIC ([7]; 24h): > 500 µM
MIC ([7]; 48h): > 500 µM
MIC ([8]; 24 h): > 500 µM
MIC ([8]; 48 h): > 500 µM
MIC ([9]; 24 h, read-out: MIC CK): > 125 µM
MIC ([9]; 48 h, read-out: MIC CK): > 125 µM
MIC ([10]; 24 h): > 500 µM
MIC ([10]; 48 h): > 500 µM
MIC ([11]; 24 h, read-out: MIC CA): > 125 µM
MIC ([11]; 48 h, read-out: MIC CA): > 125 µM
MIC KP ([12]; 24h): > 500 µM
MIC KP ([12]; 48h): > 500 µM
MIC [13, 22]: > 125 µM
MIC [13, 23]: > 125 µM
melting point: 203 to 204 °C
MIC ([14]; 24 h): > 500 µM
MIC ([14]; 48 h): > 500 µM
MIC ([15]; 24 h): > 500 µM
MIC ([15]; 48 h): > 500 µM
MIC ([16]; 24 h, read-out: MIC CP): > 125 µM
MIC ([16]; 48 h, read-out: MIC CP): > 125 µM
MIC [17, 24]: > 125 µM
MIC [17, 25]: > 125 µM
MIC [18, 26]: > 125 µM
MIC [18, 27]: > 125 µM
MIC [3]: ≥ 500 µg/mL
MIC ([19]; 72 h): > 500 µM
MIC ([19]; 120 h): > 500 µM

CCCNc1cnc(C(=O)Nc2ccc(Cl)cc2O)cn1 [Compound 6a, N-(4-chloro-2-hydroxyphenyl)-5-(propylamino)pyrazine-2-carboxamide]
MIC [1, 21]: 3.91 µg/mL (≈ 12.7 µM)
MIC [2]: ≥ 500 µg/mL
melting point: 248.9 to 250 °C
MIC [3, 21]: ≥ 500 µg/mL

CCCCCCNc1cnc(C(=O)Nc2ccc(O)cc2)cn1 [Compound 3d, 5-(Hexylamino)pyrazine-N-(4-hydroxyphenyl)-2-carboxamide]
MIC ([4]; 72 h, read-out: MIC TI): > 500 µM
MIC ([4]; 120 h, read-out: MIC TI): > 500 µM
pIC50 (HepG2 cells; HepG2, 24 h): 4.23
SI, selectivity index (HepG2 cells): 4.71
MIC [1]: 250 µg/mL (≈ 795 µM)
MIC [2]: 3.91 µg/mL (≈ 12.4 µM)
MIC ([5]; 24 h): > 500 µM
MIC ([5]; 48 h): > 500 µM
MIC ([6]; 24 h, read-out: MIC CT): > 500 µM
MIC ([6]; 48 h, read-out: MIC CT): > 500 µM
MIC ([7]; 24h): > 500 µM
MIC ([7]; 48h): > 500 µM
MIC ([8]; 24 h): > 500 µM
MIC ([8]; 48 h): > 500 µM
MIC ([9]; 24 h, read-out: MIC CK): > 500 µM
MIC ([9]; 48 h, read-out: MIC CK): > 500 µM
MIC ([10]; 24 h): > 500 µM
MIC ([10]; 48 h): > 500 µM
MIC ([11]; 24 h, read-out: MIC CA): > 500 µM
MIC ([11]; 48 h, read-out: MIC CA): > 500 µM
MIC KP ([12]; 24h): > 500 µM
MIC KP ([12]; 48h): > 500 µM
MIC [13, 22]: > 500 µM
MIC [13, 23]: > 500 µM
melting point: 157.7 to 161.5 °C
MIC ([14]; 24 h): > 500 µM
MIC ([14]; 48 h): > 500 µM
MIC ([15]; 24 h): > 500 µM
MIC ([15]; 48 h): > 500 µM
MIC ([16]; 24 h, read-out: MIC CP): > 500 µM
MIC ([16]; 48 h, read-out: MIC CP): > 500 µM
MIC [17, 24]: > 500 µM
MIC [17, 25]: > 500 µM
MIC [18, 26]: > 500 µM
MIC [18, 27]: > 500 µM
MIC [3]: ≥ 500 µg/mL
MIC ([19]; 72 h): > 500 µM
MIC ([19]; 120 h): > 500 µM

C[C@@H](c1ncncc1F)[C@](O)(Cn1cncn1)c1ccc(F)cc1F [voriconazole, reference compound]
MIC ([4]; 72 h, standards, read-out: MIC against Trichophyton interdigitale): > 16 µg/mL
MIC ([6]; 48 h, standards, read-out: MIC against C. tropicalis): > 16 µg/mL
MIC ([9]; 48 h, standards, read-out: MIC against C. krusei): 0.5 µg/mL
MIC ([11]; 48 h, standards, read-out: MIC against Candida albicans): > 16 µg/mL
MIC ([13]; CCM8077, 48 h, standards, read-out: MIC against Lichtheimia corymbifera): > 16 µg/mL
MIC ([16]; 48 h, standards, read-out: MIC against C. parapsilosis): 8 µg/mL
MIC ([17]; CCM8363, 48 h, standards, read-out: MIC against Aspergillus flavus): > 16 µg/mL
MIC ([18]; ATCC204305, 48 h, standards, read-out: MIC against Aspergillus fumigatus): 1 µg/mL

Source: PMC7180572, “5-Alkylamino-N-phenylpyrazine-2-carboxamides: Design, Preparation, and Antimycobacterial Evaluation” (Molecules, 2020)
